Measured values as given in patent US10478407B2, “Pharmaceutical composition for viral infections” (The Administrators of the Tulane Educational Fund, priority 2018, dated 2019).

Experiments:
Ebola virus (Zaire 76) = settings: 5 μg/ml; FIG. 17
[1] = system: Herpes simplex virus type 1, ATCC VR-733, Strain F(1); assay: Virucidal suspension test of solutions A-18 to D-18 against HSV-1, Vero indicator cells (Example 18); type: cell-based; settings: for viral inhibitory effect: comparable concentrations
Protocol: A suspension of virus was exposed to the use dilutions of the products. At the end of the exposure time, an aliquot was removed, neutralized by serial dilution, and assayed for the presence of virus. The virus controls, cytotoxicity controls, and neutralization controls were assayed in parallel. Antiviral properties of the solutions were evaluated and compared at the specified concentrations and time intervals.
Dilutions: 1:5 defined as 1 ml test substance+4 parts sterile PBS=0.2 mg/ml
• 1:10 defined as 1 ml test substance+9 parts sterile PBS=0.1 mg/ml • 1:15 defined as 1 ml test substance+14 parts sterile PBS=0.07 mg/ml • 1:20 defined as 1 ml test substance+19 parts sterile PBS=0.05 mg/ml • 1:25 defined as 1 ml test substance+24 parts sterile PBS=0.04 mg/ml Virus: Herpes simplex virus type 1, ATCC VR-733, Strain F(1) Exposure Time: 30 minutes Exposure Temperature: Room temperature (22.0° C.) Organic Soil Load: 1% fetal bovine serum Test Medium: Minimum Essential Medium (MEM) supplemented with 5% (v/v) heat-inactivated fetal bovine serum (FBS), […], 100 units/ml penicillin, and 2.5 μg/ml amphotericin B. Indicator Cell Cultures: Vero Results
A similar experiment was run with 15 minutes contact time. The graphical representation can be seen in FIG. 6.

[2] = system: Herpes simplex virus type 1, ATCC VR-733, Strain F(1); assay: Virucidal suspension test of solutions A-17 and B-17 against HSV-1, Vero indicator cells (Example 17); type: cell-based
Protocol: A suspension of virus was exposed to the use dilutions of the products. At the each pre-determined exposure time an aliquot was removed, neutralized by serial dilution, and assayed for the presence of virus. The virus controls, cytotoxicity controls, and neutralization controls were assayed in parallel. Antiviral properties of the solutions were evaluated and compared at the specified concentrations and time intervals.
Dilutions: FS (undiluted) defined as 1 ml test substance+0 ml PBS
• 1:10 defined as 1 ml test substance+9 ml PBS • 1:100 defined as 1 ml of the 1:10 dilution+9 ml PBS Virus: Herpes simplex virus type 1, ATCC VR-733, Strain F(1) Exposure Time: 15 minutes and 60 minutes Exposure Temperature: Room temperature (22.0° C.) Organic Soil Load: 1% fetal bovine serum Test Medium: Minimum Essential Medium (MEM) supplemented with 5% (v/v) heat-inactivated fetal bovine serum (FBS), 10 μg/ml gentamicin, 100 units/ml penicillin, and 2.5 μg/ml amphotericin B. Indicator Cell Cultures: Vero Results

[3] = 15 minutes contact time, FIG. 6
[4] = dilution 1:5 = 0.2 mg/ml, 30 minutes exposure, 22.0° C.
[5] = dilution 1:10 = 0.1 mg/ml, 30 minutes exposure
[6] = dilution 1:15 = 0.07 mg/ml, 30 minutes exposure
[7] = dilution 1:20 = 0.05 mg/ml, 30 minutes exposure
[8] = dilution 1:25 = 0.04 mg/ml, 30 minutes exposure
[9] = FS (undiluted), 15 minutes exposure, 22.0° C., stock A-17 1 mg/mL, B-17 10 mg/mL
[10] = FS (undiluted), 60 minutes exposure
[11] = dilution 1:10, 15 minutes exposure
[12] = dilution 1:10, 60 minutes exposure
[13] = dilution 1:100, 15 minutes exposure
[14] = dilution 1:100, 60 minutes exposure

Substance	viral inhibitory effect [1, 3]	% Reduction [1, 4] [%]	Log10 Reduction [1, 4] [log10]	% Reduction [1, 5]	Log10 Reduction [1, 5]	% Reduction [1, 6]	Log10 Reduction [1, 6]	% Reduction [1, 7]	Log10 Reduction [1, 7]	% Reduction [1, 8]	Log10 Reduction [1, 8]	other results
C12-alkyl(ethylbenzyl) dimethylammonium chloride	–	–	–	–	–	–	–	–	–	–	–	deactivation of Ebola virus (Ebola virus (Zaire 76)): Complete deactivation
C12-alkyl(ethylbenzyl) dimethylammonium chloride [Formulation A-18]	complete inactivation	≥99.997	≥4.5	99.4%	2.25 log10	98.2%	1.75 log10	96.8%	1.5 log10	90.0%	1 log10	% Reduction [1, 3]: 99.997%; log10 reduction [1, 3]: 6.75 log10
C14-alkyl(ethylbenzyl) dimethylammonium chloride [Formulation B-18]	–	94.4	1.24	43.8%	0.25 log10	No Reduction	No Reduction	No Reduction	No Reduction	No Reduction	No Reduction	–
benzalkonium chloride [Formulation B-17]	–	–	–	–	–	–	–	–	–	–	–	% reduction in viral titer [2, 9]: ≥ 99.99%; log10 reduction in viral titer [2, 9]: ≥ 4.00 log10; % reduction in viral titer [2, 10]: ≥ 99.98%; log10 reduction in viral titer [2, 10]: ≥ 3.75 log10; % reduction in viral titer [2, 11]: ≥ 99.999%; log10 reduction in viral titer [2, 11]: ≥ 5.00 log10; % reduction in viral titer [2, 12]: ≥ 99.998%; log10 reduction in viral titer [2, 12]: ≥ 4.75 log10; % reduction in viral titer [2, 13]: 90.0%; log10 reduction in viral titer [2, 13]: 1 log10; % reduction in viral titer [2, 14]: 99.7%; log10 reduction in viral titer [2, 14]: 2.5 log10
benzalkonium chloride [Formulation C-18, reference compound]	no viral inhibitory effect	43.8	0.25	No Reduction	No Reduction	No Reduction	No Reduction	No Reduction	No Reduction	No Reduction	No Reduction	–
